Measurements from PubChem BioAssay AID1918939 (Molecular Pharmacology Branch, DTP, NCI, 2023).

System: 653999-131-R-J2-PDC complex spheroid viability
Experiment: Anticancer human tumor 653999-131-R-J2-PDC patient-derived lung adenocarcinoma cell line growth inhibition
Details: for IC50: curve of first compound; for viability, T/C: stronger effect = lower value; active = viability on the fitted dose curve at most 10% of control; inactive = the rest
In short: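 Drug combinations with the LSD1 inhibitor iadademstat tested on tumor cells co-cultured as spheroids with endothelial cells and mesenchymal stem cells. Concentrations descended in half-log increments from clinical Cmax or 10 microM.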
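Note: spheroids exposed to agents for seven days before readout.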

CC1COCCN1c1cc(C2(S(C)(=N)=O)CC2)nc(-c2ccnc3[nH]ccc23)n1 (stereo not given) + NC1CC1c1ccc(-c2cccc(O)c2)cc1
inactive: viability, T/C (second compound 0.1 µM, first compound 0.0316 µM) 99.7% | viability, T/C (second compound 0.1 µM, first compound 0.1 µM) 100% | viability, T/C (second compound 0.1 µM, first compound 0.316 µM) 102% | viability, T/C (second compound 0.1 µM, first compound 1 µM) 77.7% | viability, T/C (second compound 0.1 µM, first compound 3.16 µM) 47.9% | viability, T/C (second compound 0.1 µM, first compound 10 µM) 51.7% | viability, T/C (second compound 0.316 µM, first compound 0.0316 µM) 104% | viability, T/C (second compound 0.316 µM, first compound 0.1 µM) 95.3% | viability, T/C (second compound 0.316 µM, first compound 0.316 µM) 92.5% | viability, T/C (second compound 0.316 µM, first compound 1 µM) 62.7% | viability, T/C (second compound 0.316 µM, first compound 3.16 µM) 42.5% | viability, T/C (second compound 0.316 µM, first compound 10 µM) 40.2% | viability, T/C (second compound 1 µM, first compound 0.0316 µM) 83.1% | viability, T/C (second compound 1 µM, first compound 0.1 µM) 98.6% | viability, T/C (second compound 1 µM, first compound 0.316 µM) 83.7% | viability, T/C (second compound 1 µM, first compound 1 µM) 57.2% | viability, T/C (second compound 1 µM, first compound 3.16 µM) 39.8% | viability, T/C (second compound 1 µM, first compound 10 µM) 36.7% | viability, T/C (second compound 3.16 µM, first compound 0.0316 µM) 90.2% | viability, T/C (second compound 3.16 µM, first compound 0.1 µM) 108% | viability, T/C (second compound 3.16 µM, first compound 0.316 µM) 94.5% | viability, T/C (second compound 3.16 µM, first compound 1 µM) 73.2% | viability, T/C (second compound 3.16 µM, first compound 3.16 µM) 43.9% | viability, T/C (second compound 3.16 µM, first compound 10 µM) 47.1% | viability, T/C (second compound 10 µM, first compound 0.0316 µM) 77.2% | viability, T/C (second compound 10 µM, first compound 0.1 µM) 93% | viability, T/C (second compound 10 µM, first compound 0.316 µM) 82.3% | viability, T/C (second compound 10 µM, first compound 1 µM) 64% | viability, T/C (second compound 10 µM, first compound 3.16 µM) 41.1% | viability, T/C (second compound 10 µM, first compound 10 µM) 47.3%
1580 nM: IC50 (second compound 1 µM)
> 10000 nM: IC50 (second compound 0.1 µM)
2110 nM: IC50 (second compound 0.316 µM)
2260 nM: IC50 (second compound 10 µM)
2650 nM: IC50 (second compound 3.16 µM)
